Data reported in publication PMC8617031, “Development of a BCL-xL and BCL-2 dual degrader with improved anti-leukemic activity,” (Nature Communications, 2021).
“And” between values parts separate entries of the source, which are not always exact repeats. Identical values can stand only once. Like-named read-outs stand apart in the source and are kept apart here.

What was measured:
[1] = tested on: BCL-xL/PROTAC/VCB ternary complex (HiBit-BCL-xL, HaloTag-VHL); test: NanoBRET intracellular ternary complex formation in 293T cells, BCL-xL; format: cell-based, human; settings: for nanoBRET ratio (610/450, background-subtracted), Ave, Bcl-xl: Ave of Read2 and Read3; for nanoBRET ratio (610/450, background-subtracted), Ave, Bcl-xl / nanoBRET ratio (610/450, background-subtracted), Read2, Bcl-xl / nanoBRET ratio (610/450, background-subtracted), Read3, Bcl-xl: triplicate wells; for intracellular ternary complex formation with BCL-xL (in words): NanoBRET, 293T cells, 6 h
Outline: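 293T cells were transfected with HiBit-BCL-xL or HiBit-BCL-2 plus HaloTag-VHL and incubated overnight with or without HaloTag NanoBRET 618 ligand in 4% FBS Opti-MEM. Serially diluted compounds were applied for 6 h at 37 °C. mBRET ratio from donor emission (450/50 nm) and acceptor emission (610 nm longpass) after Nano-Glo substrate.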

BCL-xL = biological target: T1, BCL-xL (Homo sapiens, UniProt Q07817); test: BCL-xL degradation by immunoblot in 293T cells; format: cell-based; settings: for Dmax / normalized BCL-xL protein content at 1 µM: HEK-293T; for normalized BCL-xL protein content at 1 µM: 293T, 1 μM 753b, Fig. 3d
T1 construct: endogenous in cells
Outline: (§1)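 Immunoblot of 293T cell lysates (RIPA, 20–40 μg protein per lane) with β-actin as loading control and chemiluminescent detection. Bands quantified by densitometry and normalized; DC50 and Dmax derived from the quantified blots, n = 3 biologically independent experiments.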

BCL-2 = biological target: T2, BCL-2 (Homo sapiens, UniProt P10415); test: BCL-2 degradation by immunoblot in 293T cells; format: cell-based; settings: for BCL-2 degradation (in words) / DC50: 293T cells, 16 h; for Dmax / normalized BCL-2 protein content at 1 µM: HEK-293T; for normalized BCL-2 protein content at 1 µM: 293T, 1 μM 753b, Fig. 3d
T2 construct: endogenous in cells
Outline: as §1

[2] = four concentrations, Fig. 2b, read-out: BCL-2 DC50
[3] = 293T cells, four concentrations, 16 h, Fig. 2b, read-out: BCL-xL DC50
[4] = time point 1 (unit inferred), time 0 = 100, 3 replicates

T2 sequence (P10415 whole entry): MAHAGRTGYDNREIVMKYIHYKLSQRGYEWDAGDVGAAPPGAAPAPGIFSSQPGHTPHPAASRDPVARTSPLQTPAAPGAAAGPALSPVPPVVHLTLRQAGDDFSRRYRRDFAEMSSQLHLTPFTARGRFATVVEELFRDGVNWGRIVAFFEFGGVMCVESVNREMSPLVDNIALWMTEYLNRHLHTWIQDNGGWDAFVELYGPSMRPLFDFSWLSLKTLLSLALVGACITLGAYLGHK
T1 sequence (Q07817 whole entry): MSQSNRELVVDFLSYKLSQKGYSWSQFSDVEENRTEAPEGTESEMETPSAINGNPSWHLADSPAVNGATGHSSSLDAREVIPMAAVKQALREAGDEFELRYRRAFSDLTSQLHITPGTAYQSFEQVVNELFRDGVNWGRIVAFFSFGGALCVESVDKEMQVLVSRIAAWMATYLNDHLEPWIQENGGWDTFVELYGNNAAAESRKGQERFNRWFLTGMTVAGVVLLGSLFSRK

## Cc1ncsc1-c1ccc([C@H](C)NC(=O)[C@@H]2C[C@@H](O)CN2C(=O)[C@@H](NC(=O)CCCCCCC(=O)N2CCN(C[C@@]3(C)CCC(c4ccc(Cl)cc4)=C(CN4CCN(c5ccc(C(=O)NS(=O)(=O)c6ccc(N[C@H](CCN7CCOCC7)CSc7ccccc7)c(S(=O)(=O)C(F)(F)F)c6)cc5)CC4)C3)CC2)C(C)(C)C)cc1 [753a]
[1]; 0.004 uM
  nanoBRET ratio (610/450, background-subtracted), Ave, Bcl-xl: 6.588 and 5.267 and 6.114
  nanoBRET ratio (610/450, background-subtracted), Read2, Bcl-xl: 6.808 and 5.756 and 5.973
  nanoBRET ratio (610/450, background-subtracted), Read3, Bcl-xl: 6.368 and 4.777 and 6.254
[1]; 0.012 uM
  nanoBRET ratio (610/450, background-subtracted), Ave, Bcl-xl: 7.772 and 5.901 and 5.719
  nanoBRET ratio (610/450, background-subtracted), Read2, Bcl-xl: 8.034 and 6.13 and 5.719
  nanoBRET ratio (610/450, background-subtracted), Read3, Bcl-xl: 7.511 and 5.673 and 5.719
[1]; 0.111 uM
  nanoBRET ratio (610/450, background-subtracted), Ave, Bcl-xl: 7.6 and 7.528 and 6.707
  nanoBRET ratio (610/450, background-subtracted), Read2, Bcl-xl: 8.597 and 7.785 and 7.564
  nanoBRET ratio (610/450, background-subtracted), Read3, Bcl-xl: 6.603 and 7.27 and 5.849
[1]; 0.333 uM
  nanoBRET ratio (610/450, background-subtracted), Ave, Bcl-xl: 7.771 and 7.613 and 7.591
  nanoBRET ratio (610/450, background-subtracted), Read2, Bcl-xl: 8.649 and 8.045 and 7.293
  nanoBRET ratio (610/450, background-subtracted), Read3, Bcl-xl: 6.893 and 7.18 and 7.888
[1]; 1 uM
  nanoBRET ratio (610/450, background-subtracted), Ave, Bcl-xl: 6.777 and 6.861 and 6.637
  nanoBRET ratio (610/450, background-subtracted), Read2, Bcl-xl: 6.613 and 6.856 and 7.09
  nanoBRET ratio (610/450, background-subtracted), Read3, Bcl-xl: 6.94 and 6.866 and 6.184
[1]; 3 uM
  nanoBRET ratio (610/450, background-subtracted), Ave, Bcl-xl: 7.07 and 7.184 and 6.888
  nanoBRET ratio (610/450, background-subtracted), Read2, Bcl-xl: 7.24 and 8.026 and 7.182
  nanoBRET ratio (610/450, background-subtracted), Read3, Bcl-xl: 6.9 and 6.341 and 6.5933
BCL-xL; 293T cells, 16 h
  BCL-xL degradation (in words): could only partially degrade BCL-xL

## Cc1ncsc1-c1ccc([C@H](C)NC(=O)[C@@H]2C[C@@H](O)CN2C(=O)[C@@H](NC(=O)CCCCCC(=O)N2CCN(CC3(C)CCC(c4ccc(Cl)cc4)=C(CN4CCN(c5ccc(C(=O)NS(=O)(=O)c6ccc(N[C@H](CCN7CCOCC7)CSc7ccccc7)c(S(=O)(=O)C(F)(F)F)c6)cc5)CC4)C3)CC2)C(C)(C)C)cc1 (stereo partly shown) [PPC7]
BCL-2
  BCL-2 degradation (in words): also degraded BCL-2
  Dmax: 79%
BCL-2; [2]
  DC50: 180 nM
[1]
  intracellular ternary complex formation with BCL-xL (in words): stronger BCL-xL/PROTAC/VHL-EloC-EloB (VCB) ternary complexes
BCL-xL; [3]
  DC50: 12.8 nM
BCL-xL
  Dmax: 85%

## Cc1ncsc1-c1ccc([C@H](C)NC(=O)[C@@H]2C[C@@H](O)CN2C(=O)[C@@H](NC(=O)CCCCCC(=O)N2CCN(CC[C@H](CSc3ccccc3)Nc3ccc(S(=O)(=O)NC(=O)c4ccc(N5CCN(CC6=C(c7ccc(Cl)cc7)CCC(C)(C)C6)CC5)cc4)cc3S(=O)(=O)C(F)(F)F)CC2)C(C)(C)C)cc1 [DT2216]
BCL-2
  BCL-2 degradation (in words): did not induce BCL-2 degradation
  Dmax: 0%
BCL-xL; [3]
  DC50: 20.3 nM
BCL-xL
  Dmax: 92%

## Cc1ncsc1-c1ccc([C@H](C)NC(=O)[C@@H]2C[C@@H](O)CN2C(=O)[C@@H](NC(=O)CCCCCCCC(=O)N2CCN(CC3(C)CCC(c4ccc(Cl)cc4)=C(CN4CCN(c5ccc(C(=O)NS(=O)(=O)c6ccc(N[C@H](CCN7CCOCC7)CSc7ccccc7)c(S(=O)(=O)C(F)(F)F)c6)cc5)CC4)C3)CC2)C(C)(C)C)cc1 (stereo partly shown) [PPC9]
BCL-2
  BCL-2 degradation (in words): also degraded BCL-2
  Dmax: 79%
BCL-2; [2]
  DC50: 316 nM
[1]
  intracellular ternary complex formation with BCL-xL (in words): stronger BCL-xL/PROTAC/VHL-EloC-EloB (VCB) ternary complexes
BCL-xL; [3]
  DC50: 12.8 nM
BCL-xL
  Dmax: 96%

## Cc1ncsc1-c1ccc([C@H](C)NC(=O)[C@@H]2C[C@@H](O)CN2C(=O)[C@@H](NC(=O)CCCCC(=O)N2CCN(CC3(C)CCC(c4ccc(Cl)cc4)=C(CN4CCN(c5ccc(C(=O)NS(=O)(=O)c6ccc(N[C@H](CCN7CCOCC7)CSc7ccccc7)c(S(=O)(=O)C(F)(F)F)c6)cc5)CC4)C3)CC2)C(C)(C)C)cc1 (stereo partly shown) [PPC6]
BCL-2
  Dmax: 47%
[1]
  intracellular ternary complex formation with BCL-xL (in words): stronger BCL-xL/PROTAC/VHL-EloC-EloB (VCB) ternary complexes
BCL-xL; [3]
  DC50: 39.9 nM
BCL-xL
  Dmax: 91%

## Cc1ncsc1-c1ccc([C@H](C)NC(=O)[C@@H]2C[C@@H](O)CN2C(=O)[C@@H](NC(=O)CCCCCCC(=O)N2CCN(CC3(C)CCC(c4ccc(Cl)cc4)=C(CN4CCN(c5ccc(C(=O)NS(=O)(=O)c6ccc(N[C@H](CCN7CCOCC7)CSc7ccccc7)c(S(=O)(=O)C(F)(F)F)c6)cc5)CC4)C3)CC2)C(C)(C)C)cc1 (stereo partly shown) [PPC8]
BCL-2
  BCL-2 degradation (in words): also degraded BCL-2
  Dmax: 94%
BCL-2; [2]
  DC50: 54 nM
[1]
  intracellular ternary complex formation with BCL-xL (in words): stronger BCL-xL/PROTAC/VHL-EloC-EloB (VCB) ternary complexes
BCL-xL; [3]
  DC50: 12.9 nM
BCL-xL
  Dmax: 94%

## Cc1ncsc1-c1ccc([C@H](C)NC(=O)[C@@H]2C[C@@H](O)CN2C(=O)[C@@H](NC(=O)CCCCCCC(=O)N2CCN(C[C@]3(C)CCC(c4ccc(Cl)cc4)=C(CN4CCN(c5ccc(C(=O)NS(=O)(=O)c6ccc(N[C@H](CCN7CCOCC7)CSc7ccccc7)c(S(=O)(=O)C(F)(F)F)c6)cc5)CC4)C3)CC2)C(C)(C)C)cc1 [753b]
BCL-2; Fig. 3c, read-out: DC50 in degrading BCL-2
  DC50: 48 nM
BCL-2; [4]
  normalized BCL-2 protein content at 1 µM: 99%
BCL-2; time point 3
  normalized BCL-2 protein content at 1 µM: 75%
BCL-2; time point 6
  normalized BCL-2 protein content at 1 µM: 54%
BCL-2; time point 12
  normalized BCL-2 protein content at 1 µM: 18%
BCL-2; time point 16
  normalized BCL-2 protein content at 1 µM: 4%
BCL-2; time point 24
  normalized BCL-2 protein content at 1 µM: 3%
BCL-2; time point 36
  normalized BCL-2 protein content at 1 µM: 2%
[1]; 0.004 uM
  nanoBRET ratio (610/450, background-subtracted), Ave, Bcl-xl: 6.669 and 7.034 and 7.222
  nanoBRET ratio (610/450, background-subtracted), Read2, Bcl-xl: 6.7548 and 7.529 and 7.533
  nanoBRET ratio (610/450, background-subtracted), Read3, Bcl-xl: 6.584 and 6.539 and 6.911
[1]; 0.012 uM
  nanoBRET ratio (610/450, background-subtracted), Ave, Bcl-xl: 7.369 and 7.678 and 8.359
  nanoBRET ratio (610/450, background-subtracted), Read2, Bcl-xl: 7.541 and 7.384 and 8.298
  nanoBRET ratio (610/450, background-subtracted), Read3, Bcl-xl: 7.198 and 7.973 and 8.421
[1]; 0.111 uM
  nanoBRET ratio (610/450, background-subtracted), Ave, Bcl-xl: 9.509 and 8.705 and 10.1696
  nanoBRET ratio (610/450, background-subtracted), Read2, Bcl-xl: 10.2238 and 9.035 and 9.873
  nanoBRET ratio (610/450, background-subtracted), Read3, Bcl-xl: 8.794 and 8.375 and 10.4663
[1]; 0.333 uM
  nanoBRET ratio (610/450, background-subtracted), Ave, Bcl-xl: 10.2723 and 9.168 and 8.741
  nanoBRET ratio (610/450, background-subtracted), Read2, Bcl-xl: 10.5785 and 8.953 and 8.643
  nanoBRET ratio (610/450, background-subtracted), Read3, Bcl-xl: 9.9661 and 9.383 and 8.84
[1]; 1 uM
  nanoBRET ratio (610/450, background-subtracted), Ave, Bcl-xl: 8.944 and 10.7233 and 9.842
  nanoBRET ratio (610/450, background-subtracted), Read2, Bcl-xl: 9.3741 and 12.2305 and 10.3071
  nanoBRET ratio (610/450, background-subtracted), Read3, Bcl-xl: 8.514 and 9.216 and 9.3776
[1]; 3 uM
  nanoBRET ratio (610/450, background-subtracted), Ave, Bcl-xl: 8.924 and 8.687 and 9.846
  nanoBRET ratio (610/450, background-subtracted), Read2, Bcl-xl: 9.65 and 9.358 and 10.5304
  nanoBRET ratio (610/450, background-subtracted), Read3, Bcl-xl: 8.197 and 8.015 and 9.162
[1]
  intracellular ternary complex formation with BCL-xL (in words): much higher activity to induce the ternary complex formation with both BCL-xL and BCL-2 relative to 753a
BCL-xL; 293T cells, 16 h, Fig. 3c, read-out: DC50 in degrading BCL-xL
  DC50: 6 nM
BCL-xL; [4]
  normalized BCL-xL protein content at 1 µM: 77%
BCL-xL; time point 3
  normalized BCL-xL protein content at 1 µM: 55%
BCL-xL; time point 6
  normalized BCL-xL protein content at 1 µM: 21%
BCL-xL; time point 12
  normalized BCL-xL protein content at 1 µM: 13%
BCL-xL; time point 16
  normalized BCL-xL protein content at 1 µM: 12%
BCL-xL; time point 24
  normalized BCL-xL protein content at 1 µM: 8%
